Data: ChEMBL document CHEMBL2331210, “New 2-benzylsulfanyl-nicotinic acid based 1,3,4-oxadiazoles: their synthesis and biological evaluation” (2013)
In brackets after ≈: the same amount, converted by molar mass.

What was measured:
[1] = tested on: UO-31; experiment: Antitumor activity against human UO31 cells assessed as cell growth at 0.1 uM; type: functional; details: read-out: Activity
[2] = tested on: TK-10; experiment: Antitumor activity against human TK10 cells assessed as cell growth at 0.1 uM; type: functional; details: read-out: Activity
[3] = tested on: SN12C; experiment: Antitumor activity against human SN12C cells assessed as cell growth at 0.1 uM; type: functional; details: read-out: Activity
[4] = tested on: RXF 393; experiment: Antitumor activity against human RXF393 cells assessed as cell growth at 0.1 uM; type: functional; details: read-out: Activity
[5] = tested on: ACHN; experiment: Antitumor activity against human ACHN cells assessed as cell growth at 0.1 uM; type: functional; details: read-out: Activity
[6] = tested on: CAKI-1; experiment: Antitumor activity against human CAKI-1 cells assessed as cell growth at 0.1 uM; type: functional; details: read-out: Activity
[7] = tested on: A498; experiment: Antitumor activity against human A498 cells assessed as cell growth at 0.1 uM; type: functional; details: read-out: Activity
[8] = tested on: SK-OV-3; experiment: Antitumor activity against human SKOV3 cells assessed as cell growth at 0.1 uM; type: functional; details: read-out: Activity
[9] = tested on: NCI/ADR-RES; experiment: Antitumor activity against human NCI/ADR-RES cells assessed as cell growth at 0.1 uM; type: functional; details: read-out: Activity
[10] = tested on: OVCAR-8; experiment: Antitumor activity against human OVCAR8 cells assessed as cell growth at 0.1 uM; type: functional; details: read-out: Activity
[11] = tested on: OVCAR-5; experiment: Antitumor activity against human OVCAR5 cells assessed as cell growth at 0.1 uM; type: functional; details: read-out: Activity
[12] = tested on: OVCAR-3; experiment: Antitumor activity against human OVCAR3 cells assessed as cell growth at 0.1 uM; type: functional; details: read-out: Activity
[13] = tested on: OVCAR-4; experiment: Antitumor activity against human OVCAR4 cells assessed as cell growth at 0.1 uM; type: functional; details: read-out: Activity
[14] = tested on: IGROV-1; experiment: Antitumor activity against human IGROV1 cells assessed as cell growth at 0.1 uM; type: functional; details: read-out: Activity
[15] = tested on: UACC-62; experiment: Antitumor activity against human UACC62 cells assessed as cell growth at 0.1 uM; type: functional; details: read-out: Activity
[16] = tested on: UACC-257; experiment: Antitumor activity against human UACC257 cells assessed as cell growth at 0.1 uM; type: functional; details: read-out: Activity
[17] = tested on: SK-MEL-5; experiment: Antitumor activity against human SK-MEL-5 cells assessed as cell growth at 0.1 uM; type: functional; details: read-out: Activity
[18] = tested on: SK-MEL-28; experiment: Antitumor activity against human SK-MEL-28 cells assessed as cell growth at 0.1 uM; type: functional; details: read-out: Activity
[19] = tested on: MDA-MB-435; experiment: Antitumor activity against human MDA-MB-435 cells assessed as cell growth at 0.1 uM; type: functional; details: read-out: Activity
[20] = tested on: M14; experiment: Antitumor activity against human M14 cells assessed as cell growth at 0.1 uM; type: functional; details: read-out: Activity
[21] = tested on: Malme-3M; experiment: Antitumor activity against human MALME-3M cells assessed as cell growth at 0.1 uM; type: functional; details: read-out: Activity
[22] = tested on: LOX IMVI; experiment: Antitumor activity against human LOXIMVI cells assessed as cell growth at 0.1 uM; type: functional; details: read-out: Activity
[23] = tested on: U-251; experiment: Antitumor activity against human U251 cells assessed as cell growth at 0.1 uM; type: functional; details: read-out: Activity
[24] = tested on: SNB-75; experiment: Antitumor activity against human SNB75 cells assessed as cell growth at 0.1 uM; type: functional; details: read-out: Activity
[25] = tested on: SF-539; experiment: Antitumor activity against human SF539 cells assessed as cell growth at 0.1 uM; type: functional; details: read-out: Activity
[26] = tested on: SNB-19; experiment: Antitumor activity against human SNB19 cells assessed as cell growth at 0.1 uM; type: functional; details: read-out: Activity
[27] = tested on: SF-295; experiment: Antitumor activity against human SF295 cells assessed as cell growth at 0.1 uM; type: functional; details: read-out: Activity
[28] = tested on: SF-268; experiment: Antitumor activity against human SF268 cells assessed as cell growth at 0.1 uM; type: functional; details: read-out: Activity
[29] = tested on: SW-620; experiment: Antitumor activity against human SW620 cells assessed as cell growth at 0.1 uM; type: functional; details: read-out: Activity
[30] = tested on: KM12; experiment: Antitumor activity against human KM12 cells assessed as cell growth at 0.1 uM; type: functional; details: read-out: Activity
[31] = tested on: HCT-15; experiment: Antitumor activity against human HCT15 cells assessed as cell growth at 0.1 uM; type: functional; details: read-out: Activity
[32] = tested on: HT-29; experiment: Antitumor activity against human HT-29 cells assessed as cell growth at 0.1 uM; type: functional; details: read-out: Activity
[33] = tested on: HCT-116; experiment: Antitumor activity against human HCT116 cells assessed as cell growth at 0.1 uM; type: functional; details: read-out: Activity
[34] = Antitumor activity against human HCC2998 cells assessed as cell growth at 0.1 uM; type: functional; details: HCC 2998, read-out: Activity
[35] = tested on: NCI-H460; experiment: Antitumor activity against human NCI-H460 cells assessed as cell growth at 0.1 uM; type: functional; details: read-out: Activity
[36] = tested on: NCI-H522; experiment: Antitumor activity against human NCI-H522 cells assessed as cell growth at 0.1 uM; type: functional; details: read-out: Activity
[37] = tested on: NCI-H23; experiment: Antitumor activity against human NCI-H23 cells assessed as cell growth at 0.1 uM; type: functional; details: read-out: Activity
[38] = tested on: NCI-H226; experiment: Antitumor activity against human NCI-H226 cells assessed as cell growth at 0.1 uM; type: functional; details: read-out: Activity
[39] = tested on: HOP-62; experiment: Antitumor activity against human HOP62 cells assessed as cell growth at 0.1 uM; type: functional; details: read-out: Activity
[40] = Antitumor activity against human EKVX cells assessed as cell growth at 0.1 uM; type: functional; details: read-out: Activity
[41] = tested on: A549; experiment: Antitumor activity against human A549/ATCC cells assessed as cell growth at 0.1 uM; type: functional; details: read-out: Activity
[42] = tested on: SR; experiment: Antitumor activity against human SR cells assessed as cell growth at 0.1 uM; type: functional; details: read-out: Activity
[43] = tested on: MOLT-4; experiment: Antitumor activity against human MOLT4 cells assessed as cell growth at 0.1 uM; type: functional; details: read-out: Activity
[44] = tested on: RPMI-8226; experiment: Antitumor activity against human RPMI8226 cells assessed as cell growth at 0.1 uM; type: functional; details: read-out: Activity
[45] = tested on: K562; experiment: Antitumor activity against human K562 cells assessed as cell growth at 0.1 uM; type: functional; details: read-out: Activity
[46] = tested on: HL-60; experiment: Antitumor activity against human HL60(TB) cells assessed as cell growth at 0.1 uM; type: functional; details: read-out: Activity
[47] = tested on: CCRF-CEM; experiment: Antitumor activity against human CCRF-CEM cells assessed as cell growth at 0.1 uM; type: functional; details: read-out: Activity
[48] = tested on: Mycobacterium tuberculosis; experiment: Antitubercular activity against Mycobacterium tuberculosis H37Rv assessed as growth inhibition after 12 to 28 days by L.J. agar MIC method; type: functional
[49] = tested on: Aspergillus clavatus; experiment: Antimicrobial activity against Aspergillus clavatus MTCC 1323 assessed as growth inhibition measured after overnight incubation by broth dilution method; type: functional
[50] = tested on: Aspergillus niger; experiment: Antimicrobial activity against Aspergillus niger MTCC 282 assessed as growth inhibition measured after overnight incubation by broth dilution method; type: functional
[51] = tested on: Candida albicans; experiment: Antimicrobial activity against Candida albicans MTCC 227 assessed as growth inhibition measured after overnight incubation by broth dilution method; type: functional
[52] = tested on: Pseudomonas aeruginosa; experiment: Antimicrobial activity against Pseudomonas aeruginosa MTCC 2488 assessed as growth inhibition measured after overnight incubation by broth dilution method; type: functional
[53] = tested on: Escherichia coli; experiment: Antimicrobial activity against Escherichia coli MTCC 443 assessed as growth inhibition measured after overnight incubation by broth dilution method; type: functional
[54] = tested on: Streptococcus pyogenes; experiment: Antimicrobial activity against Streptococcus pyogenes MTCC 442 assessed as growth inhibition measured after overnight incubation by broth dilution method; type: functional
[55] = tested on: Staphylococcus aureus; experiment: Antimicrobial activity against Staphylococcus aureus MTCC 96 assessed as growth inhibition measured after overnight incubation by broth dilution method; type: functional
[56] = tested on: MDA-MB-468; experiment: Antitumor activity against human MDA-MB-468 cells assessed as cell growth at 0.1 uM; type: functional; details: read-out: Activity
[57] = tested on: T47D; experiment: Antitumor activity against human T47D cells assessed as cell growth at 0.1 uM; type: functional; details: read-out: Activity
[58] = Antitumor activity against human Hs 578T cells assessed as cell growth at 0.1 uM; type: functional; details: read-out: Activity
[59] = tested on: BT-549; experiment: Antitumor activity against human BT549 cells assessed as cell growth at 0.1 uM; type: functional; details: read-out: Activity
[60] = tested on: MDA-MB-231; experiment: Antitumor activity against human MDA-MB-231/ATCC cells assessed as cell growth at 0.1 uM; type: functional; details: read-out: Activity
[61] = tested on: DU-145; experiment: Antitumor activity against human DU145 cells assessed as cell growth at 0.1 uM; type: functional; details: read-out: Activity
[62] = tested on: MCF7; experiment: Antitumor activity against human MCF7 cells assessed as cell growth at 0.1 uM; type: functional; details: read-out: Activity
[63] = tested on: PC-3; experiment: Antitumor activity against human PC3 cells assessed as cell growth at 0.1 uM; type: functional; details: read-out: Activity
[64] = tested on: SK-MEL-2; experiment: cells; details: Homo sapiens, SK-MEL-2, read-out: Activity
Description: Antitumor activity against human SK-MEL-2 cells assessed as cell growth at 0.1 uM

Cc1cnc(NC(=O)CSc2nnc(-c3cccnc3SCc3ccccc3)o2)s1
growth at 0.1 µM [1]: 22.2%
growth at 0.1 µM [2]: 82.3%
growth at 0.1 µM [3]: 46.3%
growth at 0.1 µM [4]: 73%
growth at 0.1 µM [5]: 66.5%
growth at 0.1 µM [6]: 75.3%
growth at 0.1 µM [7]: 73.7%
growth at 0.1 µM [8]: 96.2%
growth at 0.1 µM [9]: 74%
growth at 0.1 µM [10]: 70.3%
growth at 0.1 µM [11]: 87.5%
growth at 0.1 µM [12]: 82.2%
growth at 0.1 µM [13]: 67%
growth at 0.1 µM [14]: 58.5%
growth at 0.1 µM [15]: 71.7%
growth at 0.1 µM [16]: 94.9%
growth at 0.1 µM [17]: 78%
growth at 0.1 µM [18]: 106%
growth at 0.1 µM [19]: 96.5%
growth at 0.1 µM [20]: 84.1%
growth at 0.1 µM [21]: 100%
growth at 0.1 µM [22]: 73.1%
growth at 0.1 µM [23]: 72.8%
growth at 0.1 µM [24]: 70.6%
growth at 0.1 µM [25]: 85.5%
growth at 0.1 µM [26]: 65.3%
growth at 0.1 µM [27]: 90.1%
growth at 0.1 µM [28]: 59.1%
growth at 0.1 µM [29]: 90%
growth at 0.1 µM [30]: 44.9%
growth at 0.1 µM [31]: 77.3%
growth at 0.1 µM [32]: 81.6%
growth at 0.1 µM [33]: 82.4%
growth at 0.1 µM [34]: 89.5%
growth at 0.1 µM [35]: 81.1%
growth at 0.1 µM [36]: 18.5%
growth at 0.1 µM [37]: 80.6%
growth at 0.1 µM [38]: 70.2%
growth at 0.1 µM [39]: 81.1%
growth at 0.1 µM [40]: 72.1%
growth at 0.1 µM [41]: 51%
growth at 0.1 µM [42]: 67.9%
growth at 0.1 µM [43]: 41.8%
growth at 0.1 µM [44]: 63.9%
growth at 0.1 µM [45]: 77.2%
growth at 0.1 µM [46]: 49.8%
growth at 0.1 µM [47]: 37.8%
growth inhibition (GI) [48]: 99%
MIC ([48]; Mycobacterium tuberculosis, H37Rv): 50 mg/L (≈ 110 µM)
MIC [49]: 1000 mg/L (≈ 2190 µM)
MIC [50]: 1000 mg/L (≈ 2190 µM)
MIC [51]: 250 mg/L (≈ 549 µM)
MIC [52]: 62.5 mg/L (≈ 137 µM)
MIC [53]: 200 mg/L (≈ 439 µM)
MIC [54]: 62.5 mg/L (≈ 137 µM)
MIC [55]: 125 mg/L (≈ 274 µM)
growth at 0.1 µM [56]: 57.5%
growth at 0.1 µM [57]: 37.5%
growth at 0.1 µM [58]: 86.2%
growth at 0.1 µM [59]: 75.7%
growth at 0.1 µM [60]: 11%
growth at 0.1 µM [61]: 58%
growth at 0.1 µM [62]: 62.8%
growth at 0.1 µM [63]: 46.4%
growth at 0.1 µM [64]: 94%
